# Data taken from US9303016B2, “Derivatives of aza adamantane and uses thereof” (CONNEXIOS LIFE SCIENCES PVT. LTD., priority 2011, dated 2016).
# Target: T1, human full length HSD11β1 (Homo sapiens, UniProt P28845)
# T1 construct: transient expression of human full length HSD11β1 expression vector; host or cells: CHO cells, transient transfection
# Assay: In Vitro HSD11β1 Inhibition Assay
# Assay type: cell-based
# Conditions: CHO cells transiently expressing human HSD11β1; 200 nM cortisone+500 uM NADPH overnight; cortisone to cortisol by LC/MS-MS; read-out: 11βHSD1 (IC50)
# Summary of the method: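 Whole-cell assay in CHO cells transiently transfected with full-length human HSD11β1, re-seeded 24 h after transfection. Cells incubated overnight with 200 nM cortisone plus 500 uM NADPH, with or without inhibitor. Cortisone-to-cortisol conversion measured by LC/MS-MS; IC50 (nM) from an 8-point log concentration-inhibition curve.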
# T1 sequence (P28845 whole entry): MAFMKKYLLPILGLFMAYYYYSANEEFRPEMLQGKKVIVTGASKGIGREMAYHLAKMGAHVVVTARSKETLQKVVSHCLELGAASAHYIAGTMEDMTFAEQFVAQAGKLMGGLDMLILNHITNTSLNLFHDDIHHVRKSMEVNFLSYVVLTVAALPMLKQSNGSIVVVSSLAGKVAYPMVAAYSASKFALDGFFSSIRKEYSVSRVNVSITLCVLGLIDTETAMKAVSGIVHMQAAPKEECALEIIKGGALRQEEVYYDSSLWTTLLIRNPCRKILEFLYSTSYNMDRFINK
row,Structure (SMILES),IC50
1,"COc1ccc2[nH]cc(C(C)CC(=O)N3C4CC5CC3CC(F)(C5)C4)c2c1 (stereo not shown) [Compound 224, 1-(5-fluoro-2-azaadamantan-2-yl)-3-(5-methoxy-1H-indol-3-yl)butan-1-one]",> 250 nM
2,"CC(CC(=O)N1C2CC3CC1CC(Br)(C3)C2)c1c[nH]c2ccc(OS(=O)(=O)C(F)(F)F)cc12 (stereo not shown) [Compound 225, 3-(4-(5-bromo-2-azaadamantan-2-yl)-4-oxobutan-2-yl)-1H-indol-5-yl trifluoromethanesulfonate]",> 250 nM
3,"COc1ccc2[nH]cc(C(C)CC(=O)N3C4CC5CC(C4)CC3C5)c2c1 (stereo not shown) [Compound 226, 1-(2-azaadamantan-2-yl)-3-(5-methoxy-1H-indol-3-yl)butan-1-one]",< 100 nM
4,"COc1ccc2[nH]cc(C(C)CC(=O)N3C4CC5CC3CC(C)(C5)C4)c2c1 (stereo not shown) [Compound 227, 3-(5-methoxy-1H-indol-3-yl)-1-(5-methyl-2-azaadamantan-2-yl)butan-1-one]",< 100 nM
5,"CC(CC(=O)N1C2CC3CC(C2)CC1C3)c1c[nH]c2ccc(OS(C)(=O)=O)cc12 (stereo not shown) [Compound 229, 3-(4-(2-azaadamantan-2-yl)-4-oxobutan-2-yl)-1H-indol-5-yl methanesulfonate]",> 250 nM
6,"COc1ccc2[nH]cc(C(C)CC(=O)N3C4CC5CC3CC(C#N)(C5)C4)c2c1 (stereo not shown) [Compound 230, 2-(3-(5-methoxy-1H-indol-3-yl)butanoyl)-2-azaadamantane-5-carbonitrile]",> 250 nM
7,"O=C(CCc1c[nH]c2ccccc12)N1C2CC3CC(C2)CC1C3 [Example 1, 1-(2-azatricyclo[3.3.1.1^3,7]dec-2-yl)-3-(1H-indol-3-yl)propan-1-one]",> 250 nM
8,"Cc1cccc2[nH]cc(CCC(=O)N3C4CC5CC(C4)CC3C5)c12 [Example 2, 1-(2-azatricyclo[3.3.1.1^3,7]dec-2-yl)-3-(4-methyl-1H-indol-3-yl)propan-1-one]",100 to 150 nM
9,"Cc1cccc2c1c(CCC(=O)N1C3CC4CC(C3)CC1C4)cn2C [Example 3, 1-(2-azatricyclo[3.3.1.1^3,7]dec-2-yl)-3-(1,4-dimethyl-1H-indol-3-yl)propan-1-one]",> 250 nM
10,"O=C(CCc1c[nH]c2cccc(F)c12)N1C2CC3CC1CC(O)(C3)C2 [Example 4, 3-(4-fluoro-1H-indol-3-yl)-1-(5-hydroxy-2-azatricyclo[3.3.1.1^3,7]dec-2-yl)propan-1-one]",> 250 nM
11,"O=C(CCc1c[nH]c2cc(F)ccc12)N1C2CC3CC(C2)CC1C3 [Example 5, 1-(2-azatricyclo[3.3.1.1^3,7]dec-2-yl)-3-(6-fluoro-1H-indol-3-yl)propan-1-one]",200 to 250 nM
12,"O=C(CCc1c[nH]c2ccc(F)cc12)N1C2CC3CC(C2)CC1C3 [Example 7, 1-(2-azatricyclo[3.3.1.1^3,7]dec-2-yl)-3-(5-fluoro-1H-indol-3-yl)propan-1-one]",> 250 nM
13,"Cn1cc(CCC(=O)N2C3CC4CC2CC(O)(C4)C3)c2c(F)cccc21 [Example 8, 3-(4-fluoro-1-methyl-1H-indol-3-yl)-1-(5-hydroxy-2-azatricyclo[3.3.1.1^3,7]dec-2-yl)propan-1-one]",> 250 nM
14,"Cn1cc(C(C)(C)CC(=O)N2C3CC4CC2CC(O)(C4)C3)c2ccccc21 [Example 10, 1-(5-hydroxy-2-azatricyclo[3.3.1.1^3,7]dec-2-yl)-3-methyl-3-(1-methyl-1H-indol-3-yl)butan-1-one]",> 250 nM
15,"O=C(CCc1nc2ccccc2s1)N1C2CC3CC(C2)CC1C3 [Example 11, 1-(2-azatricyclo[3.3.1.1^3,7]dec-2-yl)-3-(1,3-benzothiazol-2-yl)propan-1-one]",> 250 nM
16,"O=C(CCc1nc2ccccc2s1)N1C2CC3CC1CC(O)(C3)C2 [Example 12, 3-(1,3-benzothiazol-2-yl)-1-(5-hydroxy-2-azatricyclo[3.3.1.1^3,7]dec-2-yl)propan-1-one]",> 250 nM
17,"O=C(CCc1nc2ccccc2s1)N1C2CC3CC1CC(OC(F)F)(C3)C2 [Example 13, 3-(1,3-benzothiazol-2-yl)-1-[5-(difluoromethoxy)-2-azatricyclo[3.3.1.1^3,7]dec-2-yl]propan-1-one]",> 250 nM
18,"O=C(CCc1c[nH]c2ncccc12)N1C2CC3CC(C2)CC1C3 [Example 14, 1-(2-azatricyclo[3.3.1.1^3,7]dec-2-yl)-3-(1H-pyrrolo[2,3-b]pyridin-3-yl)propan-1-one]",100 to 150 nM
19,"O=C(CCc1c[nH]c2ncccc12)N1C2CC3CC1CC(O)(C3)C2 [Example 15, 1-(5-hydroxy-2-azatricyclo[3.3.1.1^3,7]dec-2-yl)-3-(1H-pyrrolo[2,3-b]pyridin-3-yl)propan-1-one]",> 250 nM
20,"O=C(CCn1nnc2ccccc21)N1C2CC3CC1CC(O)(C3)C2 [Example 16, 3-(1H-benzotriazol-1-yl)-1-(5-hydroxy-2-azatricyclo[3.3.1.1^3,7]dec-2-yl)propan-1-one]",> 250 nM

row,Structure (SMILES),IC50
1,"CC(CC(=O)N1C2CC3CC(C2)CC1C3)c1c[nH]c2ccccc12 (stereo not shown) [Example 17, 1-(2-azatricyclo[3.3.1.1^3,7]dec-2-yl)-3-(1H-indol-3-yl)butan-1-one]",100 to 150 nM
2,"CC(CC(=O)N1C2CC3CC(C2)C(O)C1C3)c1c[nH]c2ccccc12 (stereo not shown) [Example 18, 1-(4-hydroxy-2-azatricyclo[3.3.1.1^3,7]dec-2-yl)-3-(1H-indol-3-yl)butan-1-one]",100 to 150 nM
3,"CC(C)C(CC(=O)N1C2CC3CC(C2)C(O)C1C3)c1c[nH]c2ccccc12 (stereo not shown) [Example 19, 1-(4-hydroxy-2-azatricyclo[3.3.1.1^3,7]dec-2-yl)-3-(1H-indol-3-yl)-4-methylpentan-1-one]",200 to 250 nM
4,"CC(CC(=O)N1C2CC3CC1CC(O)(C3)C2)c1c[nH]c2ccccc12 (stereo not shown) [Example 20, 1-(5-hydroxy-2-azatricyclo[3.3.1.1^3,7]dec-2-yl)-3-(1H-indol-3-yl)butan-1-one]",> 250 nM
5,"CC(C)C(CC(=O)N1C2CC3CC1CC(O)(C3)C2)c1c[nH]c2ccccc12 (stereo not shown) [Example 23, 1-(5-hydroxy-2-azatricyclo[3.3.1.1^3,7]dec-2-yl)-3-(1H-indol-3-yl)-4-methylpentan-1-one]",> 250 nM
6,"CC(C)C(CC(=O)N1C2CC3CC1CC(F)(C3)C2)c1c[nH]c2ccccc12 (stereo not shown) [Example 24, 1-(5-fluoro-2-azatricyclo[3.3.1.1^3,7]dec-2-yl)-3-(1H-indol-3-yl)-4-methylpentan-1-one]",> 250 nM
7,"CC(C)C(CC(=O)N1C2CC3CC1CC(O)(C3)C2)c1c[nH]c2cccc(F)c12 (stereo not shown) [Example 25, 3-(4-fluoro-1H-indol-3-yl)-1-(5-hydroxy-2-azatricyclo[3.3.1.1^3,7]dec-2-yl)-4-methylpentan-1-one]",> 250 nM
8,"CC(CC(=O)N1C2CC3CC1CC(O)(C3)C2)c1c[nH]c2cccc(F)c12 (stereo not shown) [Example 26, 3-(4-fluoro-1H-indol-3-yl)-1-(5-hydroxy-2-azatricyclo[3.3.1.1^3,7]dec-2-yl)butan-1-one]",200 to 250 nM
9,"COC12CC3CC(C1)N(C(=O)CC(C)c1c[nH]c4cccc(F)c14)C(C3)C2 (stereo not shown) [Example 29, 3-(4-fluoro-1H-indol-3-yl)-1-(5-methoxy-2-azatricyclo[3.3.1.1^3,7]dec-2-yl)butan-1-one]",100 to 150 nM
10,"CC(CC(=O)N1C2CC3CC1CC(Cl)(C3)C2)c1c[nH]c2cccc(F)c12 (stereo not shown) [Example 32, 1-(5-chloro-2-azatricyclo[3.3.1.1^3,7]dec-2-yl)-3-(4-fluoro-1H-indol-3-yl)butan-1-one]",150 to 200 nM
11,"CC(CC(=O)N1C2CC3CC1CC(OCC1CC1)(C3)C2)c1c[nH]c2cccc(F)c12 (stereo not shown) [Example 33, 1-[5-(cyclopropylmethoxy)-2-azatricyclo[3.3.1.1^3,7]dec-2-yl]-3-(4-fluoro-1H-indol-3-yl)butan-1-one]",> 250 nM
12,"COC12CC3CC(C1)N(C(=O)CC(C)c1c[nH]c4ccccc14)C(C3)C2 (stereo not shown) [Example 34, 3-(1H-indol-3-yl)-1-(5-methoxy-2-azatricyclo[3.3.1.1^3,7]dec-2-yl)butan-1-one]",> 250 nM
13,"CC(CC(=O)N1C2CC3CC1CC(O)(C3)C2)c1c[nH]c2cccc(Cl)c12 (stereo not shown) [Example 35, 3-(4-chloro-1H-indol-3-yl)-1-(5-hydroxy-2-azatricyclo[3.3.1.1^3,7]dec-2-yl)butan-1-one]",< 100 nM
14,"CC(CC(=O)N1C2CC3CC1CC(OC(F)F)(C3)C2)c1c[nH]c2cccc(Cl)c12 (stereo not shown) [Example 39, 3-(4-chloro-1H-indol-3-yl)-1-[5-(difluoromethoxy)-2-azatricyclo[3.3.1.1^7]dec-2-yl]butan-1-one]",100 to 150 nM
15,CC(CC(=O)N1C2CC3CC1CC(O)(C3)C2)c1c[nH]c2cccc(C3CC3)c12 (stereo not shown) [Example 41],< 100 nM
16,"CC(CC(=O)N1C2CC3CC1CC(C(=O)O)(C3)C2)c1c[nH]c2cccc(Cl)c12 (stereo not shown) [Example 43, 2-[3-(4-chloro-1H-indol-3-yl)butanoyl]-2-azatricyclo[3.3.1.1^3,7]decane-carboxylic acid]",> 250 nM
17,"CC(CC(=O)N1C2CC3CC1CC(O)(C3)C2)c1c[nH]c2cccc(Oc3ccc(Cl)cc3)c12 (stereo not shown) [Example 44, 3-[4-(4-chlorophenoxy)-1H-indol-3-yl]-1-(5-hydroxy-2-azatricyclo[3.3.1.1^3,7]dec-2-yl)butan-1-one]",200 to 250 nM
18,"CC(CC(=O)N1C2CC3CC1CC(C(=O)Nc1ccc(F)cc1)(C3)C2)c1c[nH]c2cccc(Cl)c12 (stereo not shown) [Example 45, 2-[3-(4-chloro-1H-indol-3-yl)butanoyl]-N-(4-fluorophenyl)-2-azatricyclo[3.3.1.1^3,7]decane-5-carboxamide]",> 250 nM
19,"CC(CC(=O)N1C2CC3CC1CC(O)(C3)C2)c1cn(S(C)(=O)=O)c2cccc(Cl)c12 (stereo not shown) [Example 46, 3-[4-chloro-1-(methylsulfonyl)-1H-indol-3-yl]-1-(5-hydroxy-2-azatricyclo[3.3.1.1^3,7]dec-2-yl)butan-1-one]",> 250 nM
20,"CC(CC(=O)N1C2CC3CC1CC(C(N)=O)(C3)C2)c1c[nH]c2cccc(Cl)c12 (stereo not shown) [Example 47, 2-[3-(4-chloro-1H-indol-3-yl)butanoyl]-2-azatricyclo[3.3.1.1^3,7]decane-5-carboxamide]",150 to 200 nM
